Key:
[1] = three-compartment PK model; known average value; cited from earlier work
[2] = tested on: H207 (ovarian human carcinoma); test: Tumor growth model for treated subjects, H207 inoculated subcutaneously in athymic nude mice (Experiment-C); type: in vivo; settings: average growth curve
[3] = tested on: H207 (ovarian human carcinoma); test: as above; type: in vivo; settings: average growth curve; remark: listed apart in the source
Description: The cell line H207 (ovarian human carcinoma) was inoculated subcutaneously on the back of 70 female athymic nude mice, initially weighing 17.0-25.0 g. […] Cage G2: 7 mice, treated with 3 iv-bolus of Drug-C, repeated every 7 days (therapeutic regimen q7d×3), at a dosing of 0.39 mg/kg. • III. Cage G3: 7 mice, treated with iv-bolus of Drug-C at the therapeutic regimen q7d×3, at a dosing of 0.52 mg/kg. • IV. […] Cage G6: 7 mice, treated with iv-bolus of Drug-C at the therapeutic regimen q4d×3, at a dosing of 0.39 mg/kg. • VII. Cage G8: 7 mice, treated with iv-bolus of Drug-C at the therapeutic regimen q4d×3, at a dosing of 0.52 mg/kg. • VIII. Cage G9: 7 mice, treated with 10 iv-bolus of Drug-C, subdivided in 2 cycles of treatment of 5 daily iv-bolus followed by 2 days of rest (therapeutic regimen qd×5×2 wks), at the dosing of 0.117 mg/kg each. • IX. Cage G10: 7 mice treated at the same treatment and therapeutic regimen of G4, but with the drug coming from a different batch of production.
In this case, despite the silent interval finished in correspondence of the tenth day (where the first measurement of the tumor mass was carried out), the chemotherapeutic treatment started in correspondence of the eleventh day.
The dimensions of the tumor can be taken applying different types of measurements broadly classifiable as measurements of linear dimensions, of volume (or mass) and cell number. For tumors that maintain more or less a spherical morphology, as in the case of solid tumors, the measurement of the three principal diameters results the most adequate, as well as the most practiced solution. Nevertheless, in the case of subcutaneous tumors, the tumor can be considered of spherical shape only during the initial phase of growth; in the following phases, the dimension perpendicular to the skin is generally much smaller than the percutaneous dimensions, conferring to the mass a plaque-like shape or an hemi-ellipsoidal shape. In the experiments taken into consideration, only the dimensions of the two percutaneous diameters were directly measured with vernier calipers. The third dimension was not directly measured, because of the limited accessibility (which would have required a greater invasiveness), in the assumption that two measures were anyhow sufficient to guarantee a good approximation of the tumor mass (K. Rygaard and M. Spang-Thomsen, “Quantitation and Gompertzian analysis of tumor growth”. Breast Cancer Research and Treatment, 46: 303-312,1997).
The volume of a tumor can be indirectly calculated by applying the following empirical formula: [formula] where DMIN and DMAX denote, respectively, the smallest and the largest percutaneous diameter. Such empirical formula hypothesizes that the neoplasia has an ellipsoidal shape (D. A. Cameron, W. M. Gregory, A. Bowman, E. D. C. Anderson, P. Levack, P. Forouhi and R. F. C. Leonard, “Identification of long-term survivors in primary breast cancer by dynamic modeling of tumour response”. British Journal of Cancer, 83(1): 98-103, 2000, Hammond, L. A.; Hilsenbeck, S. G.; Eckhardt, S. G.; Marty, J; Mangold, G.; MacDonald, G. R.; Rowinsky, E. K.; Von Hoff, D. D; Weitman S. Enhanced antitumour activity of 6-hydroxymethylacylfulvene in combination with topotecan or paclitaxel in the MV522 lung carcinoma xenograft model. European Journal of Cancer 2000, 36, 2430-2436) obtained by the rotation of a hemi-ellipsoid (with DMIN and DMAX as axes of the percutaneous plane) around its largest axe. Assuming δ as a constant density equal to δ=10^−3g/mm^3, the empirical expression for the mass of the neoplasia results to be: [formula] The Measurement Error Model

[4] = cage G8, 0.117 mg/kg iv-bolus qdx5x2wks
[5] = cage G9, 0.156 mg/kg iv-bolus qdx5x2wks
[6] = cage G2, 0.39 mg/kg iv-bolus q7dx3
[7] = cage G3, 0.52 mg/kg iv-bolus q7dx3
[8] = cage G4, 0.78 mg/kg iv-bolus q7dx3
[9] = cage G5, 0.26 mg/kg iv-bolus q4dx3
[10] = cage G6, 0.39 mg/kg iv-bolus q4dx3
[11] = cage G7, 0.52 mg/kg iv-bolus q4dx3
[12] = cage G10, 0.78 mg/kg iv-bolus q7dx3, drug from a different batch

C=C(Br)C(=O)Nc1cc(C(=O)Nc2cc(C(=O)Nc3cc(C(=O)Nc4cc(C(=O)NCCNC(=N)N)n(C)c4)n(C)c3)n(C)c2)n(C)c1 [Drug-C, brostallicin]
K10 [1]: 134.7 day⁻¹ | K12 [1]: 42.33 day⁻¹ | K13 [1]: 13.28 day⁻¹ | K21 [1]: 48.7 day⁻¹ | K31 [1]: 5.898 day⁻¹ | Vd [1]: 0.1811 L/kg | K2 (index of the potency of the compound) [2, 4]: 0.2081 mL/g/day | λ0 (production rate of tumor cells, exponential phase) [2, 4]: 0.2611 | λ1 (tumor cells mass produced in the time unit, linear phase) [2, 4]: 0.581 | K1 (index of the tumor cells death rate) [2, 5]: 0.4152 day⁻¹ | K1 (index of the tumor cells death rate) [3, 6]: 0.289 day⁻¹ | K2 (index of the potency of the compound) [3, 6]: 0.1731 mL/g/day | λ0 (production rate of tumor cells, exponential phase) [3, 6]: 0.2886 | λ1 (tumor cells mass produced in the time unit, linear phase) [3, 6]: 0.5183 | K1 (index of the tumor cells death rate) [3, 7]: 0.2574 day⁻¹ | K2 (index of the potency of the compound) [3, 7]: 0.1519 mL/g/day | λ0 (production rate of tumor cells, exponential phase) [3, 7]: 0.2757 | λ1 (tumor cells mass produced in the time unit, linear phase) [3, 7]: 0.6241 | K1 (index of the tumor cells death rate) [3, 8]: 0.2558 day⁻¹ | K2 (index of the potency of the compound) [3, 8]: 0.1085 mL/g/day | λ0 (production rate of tumor cells, exponential phase) [3, 8]: 0.2297 | λ1 (tumor cells mass produced in the time unit, linear phase) [3, 8]: 0.3193 | K1 (index of the tumor cells death rate) [3, 9]: 0.2979 day⁻¹ | K2 (index of the potency of the compound) [3, 9]: 0.2044 mL/g/day | λ0 (production rate of tumor cells, exponential phase) [3, 9]: 0.2728 | λ1 (tumor cells mass produced in the time unit, linear phase) [3, 9]: 0.602 | K1 (index of the tumor cells death rate) [3, 10]: 0.3486 day⁻¹ | K2 (index of the potency of the compound) [3, 10]: 0.1698 mL/g/day | λ0 (production rate of tumor cells, exponential phase) [3, 10]: 0.2554 | λ1 (tumor cells mass produced in the time unit, linear phase) [3, 10]: 0.2736 | K1 (index of the tumor cells death rate) [3, 11]: 0.2488 day⁻¹ | K2 (index of the potency of the compound) [3, 11]: 0.12 mL/g/day | λ0 (production rate of tumor cells, exponential phase) [3, 11]: 0.1966 | λ1 (tumor cells mass produced in the time unit, linear phase) [3, 11]: 0.279 | K1 (index of the tumor cells death rate) [3, 4]: 0.3766 day⁻¹ | K2 (index of the potency of the compound) [3, 5]: 0.2829 mL/g/day | λ0 (production rate of tumor cells, exponential phase) [3, 5]: 0.2942 | λ1 (tumor cells mass produced in the time unit, linear phase) [3, 5]: 0.1931 | K1 (index of the tumor cells death rate) [3, 12]: 0.3789 day⁻¹ | K2 (index of the potency of the compound) [3, 12]: 0.1558 mL/g/day | λ0 (production rate of tumor cells, exponential phase) [3, 12]: 0.2969 | λ1 (tumor cells mass produced in the time unit, linear phase) [3, 12]: 0.2177
